# Source: ChEMBL document CHEMBL5291721, “A preclinical secondary pharmacology resource illuminates target-adverse drug reaction associations of marketed drugs” (Nat Commun, 2023)
# Tests used:
# Endothelin-1 receptor = target: T1, Endothelin-1 receptor (Homo sapiens, UniProt P25101)
# T1 sequence (P25101 whole entry): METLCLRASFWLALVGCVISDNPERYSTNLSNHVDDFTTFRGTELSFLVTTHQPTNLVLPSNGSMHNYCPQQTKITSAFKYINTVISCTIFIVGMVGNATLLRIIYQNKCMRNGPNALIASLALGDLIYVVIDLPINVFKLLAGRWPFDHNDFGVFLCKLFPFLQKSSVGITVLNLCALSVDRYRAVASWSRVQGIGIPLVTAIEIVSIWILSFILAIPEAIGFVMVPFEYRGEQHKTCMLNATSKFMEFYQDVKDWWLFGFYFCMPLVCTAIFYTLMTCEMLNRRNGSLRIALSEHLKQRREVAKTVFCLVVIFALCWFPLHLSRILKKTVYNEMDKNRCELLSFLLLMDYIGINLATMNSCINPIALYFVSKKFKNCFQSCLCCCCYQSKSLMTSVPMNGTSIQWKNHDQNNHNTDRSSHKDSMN
# [1] = target: Muscarinic acetylcholine receptor M3 (Homo sapiens, UniProt P20309)
# Chain of Muscarinic acetylcholine receptor M3 (P20309 whole entry): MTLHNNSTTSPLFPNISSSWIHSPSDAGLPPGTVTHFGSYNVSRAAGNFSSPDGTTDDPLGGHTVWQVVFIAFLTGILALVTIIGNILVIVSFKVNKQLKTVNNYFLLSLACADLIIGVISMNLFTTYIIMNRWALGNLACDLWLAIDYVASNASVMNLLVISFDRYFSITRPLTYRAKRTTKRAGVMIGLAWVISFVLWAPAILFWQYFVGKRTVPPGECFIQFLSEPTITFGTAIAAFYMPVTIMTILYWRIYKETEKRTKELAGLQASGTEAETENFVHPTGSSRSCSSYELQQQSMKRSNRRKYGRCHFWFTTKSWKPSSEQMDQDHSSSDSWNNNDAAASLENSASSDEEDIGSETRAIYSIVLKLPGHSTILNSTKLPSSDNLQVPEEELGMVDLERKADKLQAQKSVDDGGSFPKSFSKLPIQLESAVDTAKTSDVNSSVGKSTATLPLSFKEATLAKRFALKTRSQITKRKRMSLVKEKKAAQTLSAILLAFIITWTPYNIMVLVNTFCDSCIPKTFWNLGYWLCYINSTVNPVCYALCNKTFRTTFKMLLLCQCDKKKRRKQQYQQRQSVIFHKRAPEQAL
# Histamine H2 receptor = Histamine H2 receptor (Homo sapiens, UniProt P25021); format: functional, cell-based
# Chain of Histamine H2 receptor (P25021 whole entry): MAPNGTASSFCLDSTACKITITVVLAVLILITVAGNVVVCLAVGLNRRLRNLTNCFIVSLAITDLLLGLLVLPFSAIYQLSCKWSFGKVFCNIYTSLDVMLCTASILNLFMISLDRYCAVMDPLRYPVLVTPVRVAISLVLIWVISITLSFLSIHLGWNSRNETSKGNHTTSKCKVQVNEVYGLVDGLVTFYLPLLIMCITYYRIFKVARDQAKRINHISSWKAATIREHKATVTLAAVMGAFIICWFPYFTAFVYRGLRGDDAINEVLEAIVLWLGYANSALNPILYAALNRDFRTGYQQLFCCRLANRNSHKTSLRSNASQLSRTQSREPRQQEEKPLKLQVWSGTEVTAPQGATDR
# [2] = target: T2, 5-hydroxytryptamine receptor 1A (Homo sapiens, UniProt P08908); format: functional, cell-based
# T2 sequence (P08908 whole entry): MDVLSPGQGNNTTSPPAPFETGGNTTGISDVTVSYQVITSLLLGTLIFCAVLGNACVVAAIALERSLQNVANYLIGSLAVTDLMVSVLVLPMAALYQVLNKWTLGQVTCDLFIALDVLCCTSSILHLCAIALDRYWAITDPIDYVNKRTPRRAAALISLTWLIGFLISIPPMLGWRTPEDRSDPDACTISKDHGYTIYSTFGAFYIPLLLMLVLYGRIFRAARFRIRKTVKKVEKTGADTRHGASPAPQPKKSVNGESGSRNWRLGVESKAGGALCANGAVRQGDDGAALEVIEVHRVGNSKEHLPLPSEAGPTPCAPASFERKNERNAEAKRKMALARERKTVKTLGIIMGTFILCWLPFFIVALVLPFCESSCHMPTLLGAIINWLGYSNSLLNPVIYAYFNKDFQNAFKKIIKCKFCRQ
# Vasopressin V1a receptor = Vasopressin V1a receptor (Homo sapiens, UniProt P37288)
# Chain of Vasopressin V1a receptor (P37288 whole entry): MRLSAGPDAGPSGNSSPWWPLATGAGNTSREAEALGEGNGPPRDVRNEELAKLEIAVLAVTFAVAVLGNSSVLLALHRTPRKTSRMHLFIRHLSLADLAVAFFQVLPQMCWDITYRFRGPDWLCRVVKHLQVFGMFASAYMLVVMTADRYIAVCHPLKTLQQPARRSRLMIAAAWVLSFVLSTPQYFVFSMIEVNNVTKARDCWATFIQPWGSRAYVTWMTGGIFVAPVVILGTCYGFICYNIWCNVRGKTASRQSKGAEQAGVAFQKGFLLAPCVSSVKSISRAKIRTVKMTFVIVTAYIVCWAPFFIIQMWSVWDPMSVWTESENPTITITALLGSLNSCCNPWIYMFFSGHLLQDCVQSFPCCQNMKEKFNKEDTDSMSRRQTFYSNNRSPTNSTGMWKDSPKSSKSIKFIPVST
# [3] = target: Beta-2 adrenergic receptor (Homo sapiens, UniProt P07550)
# Chain of Beta-2 adrenergic receptor (P07550 whole entry): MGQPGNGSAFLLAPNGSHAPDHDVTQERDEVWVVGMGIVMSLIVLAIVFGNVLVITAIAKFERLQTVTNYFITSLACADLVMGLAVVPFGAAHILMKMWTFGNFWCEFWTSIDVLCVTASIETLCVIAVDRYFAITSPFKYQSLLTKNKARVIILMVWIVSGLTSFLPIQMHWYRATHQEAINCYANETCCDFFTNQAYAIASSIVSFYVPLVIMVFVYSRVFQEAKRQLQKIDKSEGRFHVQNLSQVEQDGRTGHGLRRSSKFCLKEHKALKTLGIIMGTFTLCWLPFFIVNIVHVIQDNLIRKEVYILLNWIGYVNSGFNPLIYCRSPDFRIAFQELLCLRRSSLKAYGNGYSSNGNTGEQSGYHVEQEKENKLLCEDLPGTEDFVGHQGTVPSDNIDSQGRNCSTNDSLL
# Histamine H3 receptor = Histamine H3 receptor (Homo sapiens, UniProt Q9Y5N1)
# Chain of Histamine H3 receptor (Q9Y5N1 whole entry): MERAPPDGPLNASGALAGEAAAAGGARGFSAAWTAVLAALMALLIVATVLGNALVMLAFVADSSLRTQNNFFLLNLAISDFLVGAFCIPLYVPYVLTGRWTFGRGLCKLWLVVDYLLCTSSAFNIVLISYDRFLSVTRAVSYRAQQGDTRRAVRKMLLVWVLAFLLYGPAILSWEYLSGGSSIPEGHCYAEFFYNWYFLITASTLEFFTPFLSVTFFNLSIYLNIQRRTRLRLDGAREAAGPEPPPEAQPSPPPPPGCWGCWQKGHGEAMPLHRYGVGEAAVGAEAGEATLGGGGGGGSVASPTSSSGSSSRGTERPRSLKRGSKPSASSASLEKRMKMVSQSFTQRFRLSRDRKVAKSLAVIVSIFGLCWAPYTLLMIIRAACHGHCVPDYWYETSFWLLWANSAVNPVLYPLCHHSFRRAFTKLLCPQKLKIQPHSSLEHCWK
# Thromboxane A2 receptor = target: T3, Thromboxane A2 receptor (Homo sapiens, UniProt P21731)
# T3 sequence (P21731 whole entry): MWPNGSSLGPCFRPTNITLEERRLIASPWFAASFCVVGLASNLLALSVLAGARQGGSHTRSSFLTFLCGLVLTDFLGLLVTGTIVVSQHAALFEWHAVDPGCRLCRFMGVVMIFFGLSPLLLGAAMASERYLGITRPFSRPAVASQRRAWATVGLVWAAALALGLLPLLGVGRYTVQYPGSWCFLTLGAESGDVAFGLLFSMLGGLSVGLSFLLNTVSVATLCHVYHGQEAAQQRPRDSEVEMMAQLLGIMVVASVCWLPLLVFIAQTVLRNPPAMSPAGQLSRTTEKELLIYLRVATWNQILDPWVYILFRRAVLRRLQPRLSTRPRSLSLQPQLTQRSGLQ
# [4] = target: T4, Prostaglandin G/H synthase 1 (Rattus norvegicus, UniProt Q63921); format: functional
# T4 sequence (Q63921 whole entry): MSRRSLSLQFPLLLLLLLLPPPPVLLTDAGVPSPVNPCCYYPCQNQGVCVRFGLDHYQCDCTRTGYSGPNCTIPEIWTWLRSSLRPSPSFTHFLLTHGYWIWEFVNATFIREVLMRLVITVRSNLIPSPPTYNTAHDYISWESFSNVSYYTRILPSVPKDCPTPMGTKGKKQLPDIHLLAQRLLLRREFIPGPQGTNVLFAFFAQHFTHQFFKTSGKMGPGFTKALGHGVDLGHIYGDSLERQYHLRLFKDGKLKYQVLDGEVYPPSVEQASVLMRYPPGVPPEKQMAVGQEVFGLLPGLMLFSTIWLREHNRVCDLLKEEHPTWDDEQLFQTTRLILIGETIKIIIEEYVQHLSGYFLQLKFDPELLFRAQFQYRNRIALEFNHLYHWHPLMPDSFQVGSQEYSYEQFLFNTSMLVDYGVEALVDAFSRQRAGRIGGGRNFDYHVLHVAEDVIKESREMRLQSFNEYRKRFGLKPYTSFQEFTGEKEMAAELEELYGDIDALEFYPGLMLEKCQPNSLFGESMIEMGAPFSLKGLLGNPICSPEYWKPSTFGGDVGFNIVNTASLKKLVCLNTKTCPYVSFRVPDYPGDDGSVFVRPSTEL
# [5] = target: Growth hormone secretagogue receptor type 1 (Homo sapiens, UniProt Q92847)
# Chain of Growth hormone secretagogue receptor type 1 (Q92847 whole entry): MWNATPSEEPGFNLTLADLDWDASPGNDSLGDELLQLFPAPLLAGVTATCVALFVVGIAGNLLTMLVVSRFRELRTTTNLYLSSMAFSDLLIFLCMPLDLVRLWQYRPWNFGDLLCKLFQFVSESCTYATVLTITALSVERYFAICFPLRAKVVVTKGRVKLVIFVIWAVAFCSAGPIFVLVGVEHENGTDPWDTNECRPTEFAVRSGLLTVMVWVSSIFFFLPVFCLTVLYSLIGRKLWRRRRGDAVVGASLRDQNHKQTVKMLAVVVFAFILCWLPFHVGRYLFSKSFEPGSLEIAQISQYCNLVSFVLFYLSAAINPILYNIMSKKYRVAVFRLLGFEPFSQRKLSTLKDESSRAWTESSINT
# Cannabinoid receptor 1 = Cannabinoid receptor 1 (Homo sapiens, UniProt P21554); format: functional, cell-based
# Chain of Cannabinoid receptor 1 (P21554 whole entry): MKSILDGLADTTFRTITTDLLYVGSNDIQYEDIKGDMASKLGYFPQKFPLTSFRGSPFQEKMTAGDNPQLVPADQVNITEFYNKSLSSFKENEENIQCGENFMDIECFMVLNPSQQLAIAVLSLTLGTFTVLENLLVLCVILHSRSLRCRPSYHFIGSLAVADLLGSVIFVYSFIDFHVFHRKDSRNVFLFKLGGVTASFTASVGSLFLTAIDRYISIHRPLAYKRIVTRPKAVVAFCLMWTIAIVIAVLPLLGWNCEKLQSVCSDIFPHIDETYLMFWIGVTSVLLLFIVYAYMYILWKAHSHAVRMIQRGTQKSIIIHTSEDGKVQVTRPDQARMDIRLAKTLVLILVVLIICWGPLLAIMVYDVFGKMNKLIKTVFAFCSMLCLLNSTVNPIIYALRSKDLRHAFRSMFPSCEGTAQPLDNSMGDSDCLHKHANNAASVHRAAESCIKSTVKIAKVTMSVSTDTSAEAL
# Note: assay procedure not described here.
SMILES,AC50 (Endothelin-1 receptor),AC50 [1],AC50 (Histamine H2 receptor),AC50 [2],AC50 (Vasopressin V1a receptor),AC50 [3],AC50 (Histamine H3 receptor),AC50 (Thromboxane A2 receptor),AC50 [4],AC50 [5],AC50 (Cannabinoid receptor 1)
NC1CCN(c2c(F)cc3c(=O)c(C(=O)O)cn(C4CC4)c3c2Cl)C1 (stereo not drawn) [CLINAFLOXACIN],> 300 µM,250 µM,–,–,–,–,–,–,–,–,–
CN(C)CC/C=C1\c2ccccc2CSc2ccccc21 [DOTHIEPIN],> 30 µM,–,> 30 µM,> 30 µM,> 30 µM,> 30 µM,29 µM,> 30 µM,> 30 µM,> 30 µM,> 30 µM
CN1CCN(C2=Nc3ccccc3Sc3ccc(Cl)cc32)CC1 [CLOTHIAPINE],–,2 µM,> 30 µM,> 30 µM,–,–,–,–,–,–,–
COc1cc2nc(N3CCN(C(=O)c4ccco4)CC3)nc(N)c2cc1OC [PRAZOSIN],> 30 µM,–,–,–,> 10 µM,> 10 µM,> 10 µM,> 30 µM,> 30 µM,> 30 µM,> 30 µM
C=CCN1C[C@H](C(=O)N(CCCN(C)C)C(=O)NCC)C[C@@H]2c3cccc4[nH]cc(c34)C[C@H]21 [CABERGOLINE],–,> 30 µM,4.23 µM,0.162 µM,> 10 µM,> 10 µM,–,> 10 µM,> 10 µM,> 10 µM,> 30 µM
CCCC1O[C@@H]2C[C@H]3[C@@H]4CCC5=CC(=O)C=C[C@]5(C)[C@H]4[C@@H](O)C[C@]3(C)[C@]2(C(=O)CO)O1 (stereo partly drawn) [BUDESONIDE],–,–,> 10 µM,> 10 µM,> 10 µM,> 10 µM,> 10 µM,> 10 µM,> 10 µM,> 10 µM,–
O=[N+]([O-])O[C@@H]1CO[C@H]2[C@@H]1OC[C@@H]2O [ISOSORBIDE MONONITRATE],> 30 µM,> 10 µM,> 10 µM,> 10 µM,> 10 µM,> 10 µM,> 10 µM,> 30 µM,> 30 µM,> 30 µM,–
COc1ccccc1N1CCN(CC(O)COc2cccc3ccccc23)CC1 (stereo not drawn) [NAFTOPIDIL],–,> 30 µM,1.3 µM,> 30 µM,–,–,–,> 30 µM,> 30 µM,–,> 30 µM
COC1=C(OC)C(=O)C(C/C=C(\C)CC/C=C(\C)CC/C=C(\C)CC/C=C(\C)CC/C=C(\C)CC/C=C(\C)CC/C=C(\C)CC/C=C(\C)CC/C=C(\C)CCC=C(C)C)=C(C)C1=O [UBIDECARENONE],–,> 30 µM,> 30 µM,> 30 µM,–,–,–,–,–,–,> 30 µM
Cc1cc(C)c(NC(=O)CN(CC(=O)O)CC(=O)O)c(C)c1Br [MEBROFENIN],–,> 30 µM,> 30 µM,–,–,–,–,–,–,–,> 30 µM
CC[C@H]1CN2CCc3cc(OC)c(OC)cc3[C@@H]2C[C@@H]1C[C@H]1NCCc2cc(OC)c(OC)cc21 [EMETINE],> 30 µM,–,> 30 µM,> 30 µM,> 30 µM,> 30 µM,> 30 µM,> 30 µM,> 30 µM,> 30 µM,> 30 µM
CCC(CC)(CC(=O)Nc1cccc(/C=C/c2nc(C3CCC3)cs2)c1)C(=O)O,> 30 µM,–,–,–,> 30 µM,–,> 30 µM,–,> 30 µM,> 30 µM,–
Cc1oc(=O)oc1CN1CCN(c2cc3c(cc2F)c(=O)c(C(=O)O)c2n3C(C)S2)CC1 (stereo not drawn) [PRULIFLOXACIN],–,> 30 µM,> 30 µM,–,–,–,–,–,–,–,> 30 µM
COc1ccc(C(=O)Nc2ccccc2CCC2CCCCN2C)cc1 (stereo not drawn) [ENCAINIDE],> 30 µM,> 10 µM,> 10 µM,> 10 µM,> 10 µM,> 10 µM,> 10 µM,> 30 µM,> 30 µM,> 30 µM,> 30 µM
CCCCCNC(=N)N/N=C/c1c[nH]c2ccc(OC)cc12 [TEGASEROD],> 30 µM,> 30 µM,> 30 µM,> 30 µM,21.3 µM,7.36 µM,27.2 µM,8.39 µM,25 µM,11.4 µM,–
CC[C@@H](C(N)=O)N1CCCC1=O,> 30 µM,> 30 µM,> 30 µM,> 30 µM,> 30 µM,–,> 30 µM,–,> 30 µM,> 30 µM,> 30 µM
O=[N+]([O-])c1cn2c(n1)OC[C@@H](OCc1ccc(OC(F)(F)F)cc1)C2 [PRETOMANID],> 30 µM,> 10 µM,–,–,> 10 µM,> 10 µM,–,> 30 µM,–,> 30 µM,–
CN(C)CCC=C1c2ccccc2C=Cc2ccccc21 [CYCLOBENZAPRINE],> 30 µM,0.35 µM,> 10 µM,> 10 µM,> 30 µM,> 10 µM,> 10 µM,> 30 µM,> 30 µM,> 30 µM,> 30 µM
CCOc1ccc(Cc2cc([C@@H]3O[C@H](CO)[C@@H](O)[C@H](O)[C@H]3O)ccc2Cl)cc1 [DAPAGLIFLOZIN],–,> 30 µM,–,–,> 30 µM,> 10 µM,> 10 µM,> 30 µM,> 30 µM,> 30 µM,–
CCOc1ccccc1OCC1CNCCO1 (stereo not drawn) [VILOXAZINE],> 30 µM,> 10 µM,> 10 µM,> 10 µM,> 10 µM,7.6 µM,> 10 µM,> 30 µM,> 30 µM,> 30 µM,> 30 µM
CN(C)CCc1c[nH]c2ccc(C[C@H]3COC(=O)N3)cc12 [ZOLMITRIPTAN],> 30 µM,> 30 µM,> 30 µM,–,> 30 µM,–,> 30 µM,–,> 30 µM,> 30 µM,–
